Where two headings read alike, the source gives them in different places.
Key:
CYP3A = CYP3A (Homo sapiens, UniProt P08684); assay: Inhibition of CYP3A-catalyzed midazolam 1'-hydroxylation in pooled human liver microsomes; format: in vitro ADME
Procedure: The inhibitory potential of the five biflavonoids on the metabolism of nine P450 probe substrates was evaluated using previously developed methods with minor modifications. Biflavonoids were dissolved in methanol. The final concentration of methanol in the incubation mixture was 1.0% (v/v). We used these P450 probe substrates: phenacetin for CYP1A2, coumarin for CYP2A6, bupropion for CYP2B6, amodiaquine for CYP2C8, diclofenac for CYP2C9, omeprazole for CYP2C19, dextromethorphan for CYP2D6, chlorzoxazone for CYP2E1 and midazolam for CYP3A (Table 1). […] The reaction was stopped by adding 50 μL of ice-cold acetonitrile containing 7 nM trimipramine (internal standard, IS). After centrifugation at 18,000 g (5 min, 4 °C), aliquots of supernatants were analyzed by LC-MS/MS (Shimadzu LCMS 8060 system, Shimadzu, Kyoto, Japan). All microsomal incubations were conducted in triplicate. We used HLMs to determine the mechanisms and constants (Ki values) for […] A inhibition of CYP1A2, CYP2B6, CYP2C8, CYP2C9 and CYP3A. […] The substrates were used at concentrations approximately near to their respective Km values. […] The other conditions were the same as in the cytochrome P450 inhibition study. […] Phenomenex, Torrance, CA, USA) and analyzed using a Shimadzu LCMS 8060 triple-quadrupole mass spectrometer coupled with a Nexera X2 ultra high-performance liquid chromatography system (Shimadzu, Kyoto, Japan) equipped with an electrospray ionization interface. The mobile phase consisted of 0.1% formic acid in water (A) and 0.1% formic acid in acetonitrile (B). […] The flow rate was 0.2 mL/min. Electrospray ionization was performed in positive-ion mode at 4000 V or in negative-ion mode at -3500 V. […] Quantitation was conducted in selected reaction monitoring (SRM) modes with the precursor-to-product ion transition for each metabolite (Table 1 and Table 2). We analyzed the data with Shimadzu LabSolution LC-MS software. The IC50 values were calculated by WinNonlin software (Pharsight, Mountain View, CA, USA). The type of inhibition and the apparent kinetic parameters for inhibitory activity (Ki) were determined by following several criteria: visual inspection of Dixon plots, Lineweaver-Burk double reciprocal plots, and secondary plots of Lineweaver-Burk plots versus biflavonoid concentrations, the size of the sum of squares of the residuals, Akaike Information Criteria values, the S.E. and 95% confidence interval of the parameter estimates from the nonlinear regression analysis using the WinNonlin software. The models tested included competitive, competitive partial, noncompetitive, noncompetitive partial, uncompetitive, uncompetitive partial, and mixed-type inhibition.

UGT1A1 = biological target: T1, UGT1A1 (Homo sapiens, UniProt P22309); assay: Inhibition of UGT1A1 (SN-38 glucuronidation) in human liver microsomes; format: in vitro ADME; parameters: tissue XenoTech XTreme 200; host or cells: pooled human liver microsomes; settings: substrate SN-38; HLMs 0.25 mg/mL; average ± standard error
T1 sequence (P22309 26-533): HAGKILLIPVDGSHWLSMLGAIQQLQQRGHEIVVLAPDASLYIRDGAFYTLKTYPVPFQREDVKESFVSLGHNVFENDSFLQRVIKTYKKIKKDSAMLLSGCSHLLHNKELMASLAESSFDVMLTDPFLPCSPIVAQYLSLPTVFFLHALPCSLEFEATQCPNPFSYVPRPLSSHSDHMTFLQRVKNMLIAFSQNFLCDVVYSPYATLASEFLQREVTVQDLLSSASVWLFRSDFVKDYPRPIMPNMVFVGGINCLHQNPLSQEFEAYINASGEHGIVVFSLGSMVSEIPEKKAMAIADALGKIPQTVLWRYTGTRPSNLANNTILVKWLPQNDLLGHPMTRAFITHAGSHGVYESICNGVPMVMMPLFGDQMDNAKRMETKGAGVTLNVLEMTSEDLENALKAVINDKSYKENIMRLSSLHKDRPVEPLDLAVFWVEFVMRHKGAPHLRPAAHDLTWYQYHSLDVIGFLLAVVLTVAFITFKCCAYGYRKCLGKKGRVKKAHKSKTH
Procedure: The ability of selamariscina A to inhibit the metabolism of six UGT enzyme probe substrates was evaluated using previously developed methods with minor modifications. The microsomal incubation was performed by dividing the non-interactive substrate cocktail sets (set A included SN-38 for UGT1A1, CDCA for UGT1A3 and TFP for UGT1A4 while set B included N-SER for UGT1A6, MPA for UGT1A9 and NX for UGT2B7) (Table 2). In brief, HLMs (0.25 mg/mL) were activated by incubation in the presence of alamethicin (25 µg/mL) for 15 min on ice. After the addition of UGT probe substrates and inhibitor (0, 0.5, 2, 5, 20 and 50 μM), the incubation mixtures were pre-incubated at 37 °C for 5 min. […] After centrifugation at 18,000 g (5 min, 4 °C), aliquots of supernatants were analyzed by LC–MS/MS. […]
All metabolites and the IS were separated on a Kinetex XB-C18 column (100 × 2.10 mm, 2.6 μm, 100 Å; Phenomenex, Torrance, CA, USA) and analyzed using a Shimadzu LCMS 8060 triple-quadrupole mass spectrometer coupled with a Nexera X2 ultra high-performance liquid chromatography system (Shimadzu, Kyoto, Japan) equipped with an electrospray ionization interface. […] Quantitation was conducted in selected reaction monitoring (SRM) modes with the precursor-to-product ion transition for each metabolite (Table 1 and Table 2).
We analyzed the data with Shimadzu LabSolution LC–MS software. […]

[1] = human, pooled human liver microsomes, probe midazolam (5 µM), substrate midazolam 5 µM, pooled HLMs, read-out: IC50, P450 3A

Sequence of CYP3A (P08684 2-503): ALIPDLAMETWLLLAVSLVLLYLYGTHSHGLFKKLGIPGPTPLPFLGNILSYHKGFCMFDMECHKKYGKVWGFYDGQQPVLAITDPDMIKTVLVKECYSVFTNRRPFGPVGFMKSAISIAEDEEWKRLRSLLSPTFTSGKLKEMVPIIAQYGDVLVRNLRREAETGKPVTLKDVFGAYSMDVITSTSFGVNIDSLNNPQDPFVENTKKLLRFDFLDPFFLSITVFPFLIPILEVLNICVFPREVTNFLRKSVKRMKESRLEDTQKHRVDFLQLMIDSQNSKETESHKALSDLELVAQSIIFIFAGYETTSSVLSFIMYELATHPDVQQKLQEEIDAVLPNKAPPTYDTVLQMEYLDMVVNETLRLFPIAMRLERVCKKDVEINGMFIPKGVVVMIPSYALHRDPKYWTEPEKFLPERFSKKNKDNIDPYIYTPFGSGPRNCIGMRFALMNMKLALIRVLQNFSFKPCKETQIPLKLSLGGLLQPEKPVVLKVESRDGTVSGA

| IC50 at 10 min (CYP3A; [1]) [µM] | Structure (SMILES) | IC50 at 10 min (CYP3A; human, microsomes) [µM] | IC50 (UGT1A1) [µM] | further results |
| --- | --- | --- | --- | --- |
| 2.7 | O=C1CC(c2cc(-c3c(O)ccc4c(=O)cc(-c5ccc(O)cc5)oc34)c(O)cc2O)Oc2cc(O)cc(O)c21 (stereo not shown) [selamariscina A] |  | 1.7 ± 0.5 | Mode of Inhibition, CYP3A midazolam (CYP3A; HLMs): Noncompetitive; Ki at 10 min (CYP3A; human, pooled human liver microsomes, probe midazolam (0.5, 2, 5 μM), HLMs, average ± standard error, triplicate): 4.5 ± 0.5 µM |
| 1.2 | O=c1cc(-c2ccc(O)c(-c3c(-c4ccc(O)cc4)oc4cc(O)cc(O)c4c3=O)c2)oc2cc(O)cc(O)c12 [taiwaniaflavone] |  |  |  |

Continued, compound first:

| Structure (SMILES) | IC50 at 10 min (CYP3A; [1]) [µM] | IC50 at 10 min (CYP3A; human, microsomes) [µM] | IC50 (UGT1A1) [µM] | further results |
| --- | --- | --- | --- | --- |
| O=c1cc(-c2ccc(O)c(-c3c(O)cc(O)c4c(=O)cc(-c5ccc(O)cc5)oc34)c2)oc2cc(O)cc(O)c12 [amentoflavone] |  | 1.3 | 1.7 |  |
| O=c1cc(-c2ccc(O)cc2)oc2c(-c3c(O)cc(O)c4c(=O)cc(-c5ccc(O)cc5)oc34)c(O)cc(O)c12 [cupressuflavone] | 1.5 |  |  |  |
| CC(C)(O)c1ccccc1CC[C@@H](SCC1(CC(=O)O)CC1)c1cccc(/C=C/c2ccc3ccc(Cl)cc3n2)c1 [montelukast, reference compound] |  | > 50 |  |  |
| O=c1cc(-c2ccc(O)c(-c3c(O)cc4oc(-c5ccc(O)cc5)cc(=O)c4c3O)c2)oc2cc(O)cc(O)c12 [robustaflavone] | 1.2 |  |  |  |

— paper PMC7238120, “Strong and Selective Inhibitory Effects of the Biflavonoid Selamariscina A against CYP2C8 and CYP2C9 Enzyme Activities in Human Liver Microsomes” (Pharmaceutics, 2020)
